Measured values from patent US20140093935A1, “CHARGED TRIPLET-STATE QUENCHERS FOR MITIGATION OF PHOTO-INDUCED DAMAGE” (Pacific Biosciences of California, Inc., priority 2012, published 2014).

Columns and labels:
fluorophore blinking = experiment: Sequencing-by-synthesis assay, interpulse duration / very short dark periods (blinkiness); format: biochemical; conditions: 3 μM and 5 μM of compound compared with 1 mM of the charged nitrophenyl photoprotective moiety; FIG. 7
Protocol: One measure of photoprotective benefit is monitoring “blinkiness” of dyes in a reaction mixture. For example, in a reaction in which dye-labeled reactants are being observed as they cyclically interact with an unlabeled reactant, the time between interaction events is a length of time during which no dye is present, or a “dark” period. Given certain reaction parameters, e.g., diffusion rates and concentration of the labeled reactant, a distribution of dark periods is measured that centers around a value that is an average time between interaction events. This distribution curve can be perturbed by dye blinking since such blinking introduces a very brief dark period during an interaction event. These blinking-induced dark periods introduce an aberrant peak in the dark period distribution resulting in a peak that is outside of the normal distribution and representing dark periods that are too short to be explained by the reaction parameters. Blinkiness is increased when a dye is excited to the triplet state and there is insufficient photo-induced damage mitigation to quickly return it to a non-triplet state. […]
Experiments were conducted using a single-molecule, real-time (SMRT®) sequencing instrument. […] Sequencing was initiated and reactions were monitored in real time. The fluorescence emissions were recorded, processed, and analyzed. […]

phi29 polymerase enzyme = experiment: Sequencing-by-synthesis assay, polymerase survival as a function of number of bases sequenced; format: biochemical
Text: In various embodiments, the amount of photo-induced damage that occurs in a reaction mixture of the invention is detectably less than the amount of photo-induced damage that occurs in the absence of a photoprotective additive according to Formula I or Formula II. Photo-induced damage can be measured in different ways, depending on the particular analytical reaction. One way is by monitoring blinkiness of a fluorescent dye in the reaction, as further explained above. In other embodiments, the amount of photo-induced damage is measured as a length of time a reaction can proceed, e.g., the survival time for an enzyme catalyzing a reaction. For example, in a nucleic acid sequencing-by-synthesis reaction, a proxy for the level of photo-induced damage can be the length of the nascent strand synthesized and/or the length of the sequencing read generated. […]
Experiments were conducted using a single-molecule, real-time (SMRT®) sequencing instrument. […] Sequencing was initiated and reactions were monitored in real time. The fluorescence emissions were recorded, processed, and analyzed.
Further analysis of the fluorescent emissions included measurement of polymerase enzyme survival in the reaction as a function of number of bases sequenced. Another measure of photo-induced damage was the average read length produced in the sequencing reaction.

In the case of `O=C(CNc1cccc([N+](=O)[O-])c1)NCCCCCCOP(=O)(O)OP(=O)(O)OP(=O)(O)OP(=O)(O)OP(=O)(O)O` [TSQ001-6C-5P], the “reducing the incidence of very short dark periods (proxy for blinkiness)” value (fluorophore blinking) is reported as “as effective”, the “increasing survival of a polymerase enzyme” value (phi29 polymerase enzyme; 1.5, 3, and 5 μM of compound compared with 1 mM of the charged nitrophenyl photoprotective moiety, FIG. 8) is reported as “more effective” and the “polymerase survival in a sequencing-by-synthesis reaction is increased” value (phi29 polymerase enzyme; as compared to the photoprotective moiety alone, by various measures (data not shown)) is reported as 15-25%.
